From a melting point compilation (Tetko et al.; mined from patent text by program, amines drawn as free bases though some values may be those of a salt) come the findings set out here.

As usually defined, the melting point is the temperature of the solid-liquid transition.

Compound `CCOC(=O)C=Cc1cc(OC)c(OC)c(OC)c1` came in with a melting point of 63.4 °C.
`O=C(NCC(=O)OCCC(F)=C(F)F)Nc1ccc(Cl)cc1Cl`: the melting point worked out at 120 °C.
The compound `N#Cc1cc(N=Nc2cccc(Cl)c2)ccc1N` gave a melting point of 255 °C.
For the compound `Cc1ccc(S(=O)(=O)N=CNCc2ccc(-c3csc(N=C(N)N)n3)o2)cc1`, the melting point lay within 141 to 142 °C.
`CCc1ccc(-c2ccc(-c3ccc(C)s3)c(F)c2)cc1` showed a melting point of 102 °C.
`Cc1csc2c1CCN(C)CC2c1ccccc1` (centres undefined) returned a melting point of 40 °C.
`CC(=O)Nc1ccc(C(=O)c2cc(-c3ccc(S(C)(=O)=O)cc3)c(N3CCOCC3)s2)cc1`: the melting point came to 129 °C.
The same measure for `CCOC=Nn1c(NC)n[nH]c1=O`: 169 °C; for `O=C1C(=O)c2ccccc2C2=C1SCC1(CCN(S(=O)(=O)c3cccs3)CC1)O2`: 245 to 248 °C; for `Cc1oc2c(NC(=O)c3c(Cl)ccc(Cl)c3C(N)=O)cccc2c1C`: 229 to 232 °C.
`CC(C)(C)OC(=O)N1CCNC(=O)C1Cc1ccccc1` (centres undefined): the melting point fell in the range of 152 to 154 °C.
Consider `CCOC(=O)c1cc2c3ccccc3nc(C)n2c1`, for which the melting point lay in the range of 113 to 116 °C.
The same measure for `CCC(CC)c1nn(-c2ccc(C(F)(F)F)nn2)cc1CCCO`: 86 to 87 °C.
As for `Cc1ccc2c(Sc3ccc(Cl)cc3)c(C(=O)O)[nH]c2c1`, the melting point is 228 to 229 °C.
Regarding `Cc1cc(F)nc(-c2ccc(F)cc2)c1`, the melting point stood at 49 °C.
The same measure for `CSc1ccc2sc3cc(F)ccc3c(=O)c2c1`: 135 to 138 °C; for `CC(Cl)(Cl)C(NC(=O)c1cccc(Cl)c1)NC(=NC#N)Nc1cccc(F)c1` (centres undefined): 179 to 181 °C; for `CC(C)(C)N(NC(=O)c1ccccc1)C(=O)c1ccncc1`: > 210 °C.
On to `CCOCC(=O)Nc1ncc(Br)s1`, for which the melting point lay in the range of 100 to 102 °C.
The same measure for `COc1cc(F)cc2c1-c1c(F)cc(F)cc1C2=O`: 164 to 166 °C; for `O=c1[nH]c(N2CCOCC2)nc2c(N3CCCCCC3)nc(N3CCOCC3)cc12`: 240 °C.
As for `CN(C)CC(c1ccc(OC(=O)c2ccccc2)cc1)C1(OC(=O)c2ccccc2)CCCCC1` (centres undefined), the melting point lay in the range of 128 to 130 °C.
The same measure for `CNC(=O)C(=O)CCCCCCSc1nc(-c2ccccc2)cs1`: 107 to 108 °C.
With `CN(C(=O)c1ccco1)c1cccc(-c2nc(=O)c3ccccc3s2)n1`, the melting point fell in the range of 186 to 187 °C.
For `COc1ccc(-c2c3c(cc4ccc5c(c24)OCO5)C(=O)OC3)cc1OC` the value was 221 to 223 °C.
As to `OC1CCCc2nc3ccccc3c(NCCCC(c3ccccc3)c3ccccc3)c21` (centres undefined), the melting point lay in the range of 147 to 148 °C.
For the compound `CC(C#N)=C1CCN(c2ccc(N3C[C@H](CO)OC3=O)cc2F)CC1`, the melting point lay in the range of 100 to 102 °C.
For `Cc1cnc(C2=NC(C)(C(C)C)C(=O)N2)c(C(=O)C(=O)N(C)C)c1` (centres undefined), the melting point lay within 180 to 182 °C.
The same measure for `COc1ccc(CCc2oc3ccc(C#N)cc3c2C(=O)O)cc1`: 205 to 208 °C.
The compound `CN(C)Cc1cccc(-c2[nH]c3cccc4c3c2CCNC4=O)c1` registered a melting point of 222 to 225 °C.
`CC1(C)C(=O)Oc2ccc3cc(C#N)c(C(n4cncn4)n4cncn4)cc3c21` returned a melting point of 240 to 242 °C.
Turning to `COc1ccc(CC(C)NCC(O)c2cccc(Cl)c2)cc1` (centres undefined), the melting point is 80 to 87 °C.
The same measure for `Cc1ccc(S(=O)(=O)c2ccc3c(c2)[C@@H](N2CCCC2=O)[C@H](O)C(C)(C)O3)cc1` (relative stereo): 242 to 243 °C; for `C=CCOc1nc2ccccc2c2ncc(C(=O)OCC)c(=O)n12`: 191 to 195 °C; for `CC(=O)c1ccc(OCn2cc(Cl)cnc2=O)cc1`: 182 °C.
Take `OCC1OC(n2cnc3c(NC4C=CCC4O)ncnc32)C(O)C1O` (centres undefined): the melting point was in the range of 212 to 214 °C.
`CCCN1C(=O)N2CCN=C2c2c1ncn2C` displayed a melting point of 110 to 112 °C.
`Clc1ccc(Sc2cc(NCCN3CCOCC3)nc(-c3ccc(Cl)cc3)n2)cc1` displayed a melting point of 159 to 161 °C.
The same measure for `Cc1oc(-c2ccccc2)nc1COc1ccccc1COc1ccc(CC(=O)O)cc1`: 173 to 174 °C; for `CCCc1c(OCCOCCOc2c(C(C)=O)ccc(OCCCCCC(=O)O)c2CCC)ccc(C(C)=O)c1O`: 55 to 57 °C; for `CC(=O)SCSc1cnnn1C`: 37 to 38 °C.
For `Cc1noc(NS(=O)(=O)c2ccc(Nc3ccc([N+](=O)[O-])cc3[N+](=O)[O-])cc2)c1C`, the melting point worked out at 187 °C.
`Cc1cccc2nc3c(c(N)c12)CCCC3`: the melting point lay within 143 to 145 °C.
`CCOC(=O)c1ccc(C=Cc2cc3ccccc3s2)s1` had a melting point of 116 to 117 °C.
The same measure for `CC(C)(Cn1cnc2c(N)nc3ccccc3c21)C(N)=O`: 287 to 289 °C; for `COc1ccccc1CNc1ccc2cc(Nc3ncccc3C)ccc2n1`: 163 °C.
As for `CCCC1(C)CC(C)c2cc(C(C)=O)c(O)c(C)c2O1` (centres undefined), the melting point was 73 °C.
`Cc1ccnc(N2CCN(CCc3c(C)n4c5c(cc(Br)cc35)CCC4)CC2)c1` registered a melting point of 200 °C.
`COc1cc(C(C)(C)C)c2c(c1)C(C)(C)C(=O)O2` yielded a melting point of 63.5 to 64.5 °C.
The same measure for `O=C(c1ccc(Cl)cc1)c1ccc2c(c1)C(c1cccc(Cl)c1)=NCC(=S)N2`: 125 °C; for `CC(=O)C(=Cc1ccc(S(=O)(=O)c2ccccc2)cc1)C(C)=O`: 102 to 105 °C.
The compound `NC(=O)c1[nH]cnc1OC(=O)c1ccc(Cl)cc1` yielded a melting point of 220 °C.
In the case of `COc1ccc(OC(N)=O)cc1`, the melting point is > 300 °C.
For the compound `COc1ccc2c(c1)C(=O)c1ccc(Nc3ccc(F)c(F)c3F)cc1CC2`, the melting point turned out to be 128 °C.
Take `O=C(Nc1ccc(O[C@H]2CC[C@H](C(=O)O)CC2)cc1)c1nnc(Nc2cc(F)c(F)cc2F)o1`: the melting point is 251 to 253 °C.
Regarding `CC(C)(C)OC(=O)N1C[C@@H]2OCc3c(-c4ccccc4)nnn3[C@H]2C1`, the melting point lay in the range of 236 to 237 °C.
The compound `Cc1nc2cc(Oc3cc(-c4ccc(C(C)(C)C)cc4)ncn3)ccc2s1` yielded a melting point of 163 to 165 °C.
On to `O=C(O)c1ccc2cc(OCCN3CCN(c4ccc(Cl)cc4)CC3)ccc2c1`, for which the melting point is 197 to 199 °C.
For `CCOc1cc(-c2cc(C(F)(F)F)n3ncc(C(=O)Nc4cccc(S(C)(=O)=O)c4)c3n2)ccc1C(F)(F)F` the value was 215 °C; for `COC(=O)c1sccc1S(=O)(=O)NC(=O)Nc1nc(C)cc(C)n1`, 191 to 193 °C.
`Cc1cc(CCCCCOc2c(Cl)cc(-c3noc(C(F)(F)F)n3)cc2Cl)on1`: the melting point lay within 42 to 43 °C.
The same measure for `Cc1cc(C)n(CC2CC3c4cccc5[nH]cc(c45)CC3N(C)C2)n1` (centres undefined): 187 to 190 °C; for `CC(=O)Oc1c(C(C)(C)C)cc2oc(C=O)cc2c1C(C)(C)C`: 160 °C; for `CCCCCCC(C(=O)Nc1ccccc1O)n1cnc(NC(=O)c2ccccc2S(=O)(=O)O)c1` (centres undefined): 138 to 147 °C.
In turn, `COc1ccc2cc([C@H](C)C(=O)OCCOC(=O)C(=O)OCCCO[N+](=O)[O-])ccc2c1` returned a melting point of 55 to 58 °C.
`Brc1cccc(Sc2ncccc2OCCCc2cccnc2)c1` had a melting point of 75 to 76 °C.
The same measure for `Cc1cccc(-c2n[nH]cc2-c2ccc(F)c(-c3ccc(NC(=O)NN4CCOCC4)cc3)c2)n1`: 131 to 133 °C; for `COc1ccccc1N1CCN(CCC(C#N)(c2ccccc2)c2ccccc2[N+](=O)[O-])CC1` (centres undefined): 61 to 64 °C.
`COC(=O)CC(C(=O)OC)N1C(=O)C2NC(C)(C)SC21` (centres undefined) displayed a melting point of 136 to 137 °C.
For `Cc1noc(NS(=O)(=O)c2ccccc2-c2ccc(-c3ncco3)cc2CCN(C)C(=O)Cc2ccccc2)c1C` the value was 98 to 106 °C; for `Nc1nc(=O)c2ccccc2n1Cc1ccc(F)cc1`, 170 °C.
Turning to `COc1ccc(-c2[nH]nc3c2C(=O)c2c(NC(=O)N[C@@H]4CCCC[C@@H]4N)cccc2-3)cc1` (relative stereo), the melting point was > 300 °C.
In turn, `Cc1[nH]n(C2CCCC2)c2nc(C3CCN(C(=O)C(F)(F)F)CC3)nc(=O)c1-2` yielded a melting point of 219 to 221 °C.
Regarding `COc1c(O)ccc(C(=O)c2ccccc2)c1F`, the melting point is 126 to 128 °C.
For `Nc1c(Oc2ccc(F)c(C(F)(F)F)c2)nc(Br)nc1Oc1ccc(F)c(C(F)(F)F)c1`, the melting point lay within 184 to 186 °C.
`N#Cc1cccc(C(Oc2ccccc2)Oc2ccccc2)n1`: the melting point lay within 82 to 85 °C.
As for `COc1ccc(C=CC(=O)Nc2cccc(C(=O)O)c2)cc1OC`, the melting point was in the range of 225 to 226 °C.
`O=C(O)[C@@H]1CCCN1C(=O)c1cc2cc3c(cc2c2cc(O)ccc12)OCO3` came in with a melting point of 230 to 231 °C.
For the compound `C[C@@H]1CN(c2c(F)cc3c(=O)c(C(=O)O)cn(C4CC4)c3c2F)C[C@H]1N` (relative stereo), the melting point was in the range of 257 to 260 °C.
The same measure for `CN(CCc1ccccc1)C(=O)C(O)C(O)c1ccccc1` (centres undefined): 145 to 147 °C; for `O=C(O)C1C=CCn2c(=O)n(CCCS)c(=O)n21` (centres undefined): 119 to 121 °C.
For the compound `CCC[C@H](NC(=O)OCc1ccccc1)C(=O)C(N)P(=O)(OC)OC` (some centres undefined), the melting point lay in the range of 82 to 84 °C.
With `CCS(=O)(=O)Nc1ccc(F)c([N+](=O)[O-])c1`, the melting point was in the range of 133 to 136 °C.
For the compound `Nc1cnc2ccc(C(F)(F)F)cc2c1-c1ccccc1`, the melting point lay within 107 to 108 °C.
Take `CC(=O)C(=Cc1ccc(C=O)c([N+](=O)[O-])c1)C(C)=O`: the melting point was 102 to 104 °C.
As for `Cc1oc(-c2ccccc2)nc1COc1ccc(CC(=O)O)cc1`, the melting point lay in the range of 181 to 183 °C.
For `Cc1ccc(CN[C@H](CO)Cc2ccccc2)cc1` the value was 125 to 127 °C; for `CCCCCCCCCCOc1ccc(NC(=O)c2ccc(OC(C)=O)cc2)cc1OCCCCCCCCCC`, 117 °C; for `CC(=O)c1ccc(S(=O)(=O)Nc2cccnc2)cc1`, 182 to 183 °C.
